Experimental findings from ChEMBL document CHEMBL4627278, “Discovery of 2-aminoisobutyric acid ethyl ester (AIBEE) phosphoramidate prodrugs for delivering nucleoside HCV NS5B polymerase inhibitors” (Bioorg Med Chem Lett, 2020) are described below.

Data set [1] in a line: Lipophilicity, log D of compound. It counts as physicochemical. Particulars: octanol/water.
Data set [2] in a line: Intrinsic clearance in human hepatocytes. It counts as ADME, cell-based, Hepatocyte. Particulars: read-out: CLH (converted).
Data set [3] is described as follows: Prodrug conversion in dog liver assessed as (2S)-2-((((2R,3R,4R,5R)-4-bromo-4-chloro-5-(2,4-dioxo-3,4-dihydropyrimidin-1(2H)-yl)-3-hydroxytetrahydrofuran-2-yl)methoxy)(hydroxy)phosphorylamino)propanoic acid level at 5 mg/kg, po after 24 hrs. It is filed as ADME, organism-based, Canis lupus familiaris. The conditions noted are these: in vivo.
The nature of data set [4]: Prodrug conversion in dog liver assessed as 1-((2R,3R,4R,5R)-3-bromo-3-chloro-4-hydroxy-5-(hydroxymethyl)tetrahydrofuran-2-yl)pyrimidine-2,4(1H,3H)-dione level at 5 mg/kg, po after 4 hrs. The conditions noted are these: in vivo. It counts as ADME, organism-based, Canis lupus familiaris.
Data set [5] can be described thus: Prodrug conversion in dog liver assessed as nucleotide triphosphate level at 5 mg/kg, po after 4 hrs. It counts as ADME, organism-based, Canis lupus familiaris. The conditions noted are these: in vivo.
A short description of data set [6]: Prodrug conversion in dog liver assessed as (2S)-2-((((2R,3R,4R,5R)-4-bromo-4-chloro-5-(2,4-dioxo-3,4-dihydropyrimidin-1(2H)-yl)-3-hydroxytetrahydrofuran-2-yl)methoxy)(hydroxy)phosphorylamino)propanoic acid level at 5 mg/kg, po after 4 hrs. It is filed as ADME, organism-based, Canis lupus familiaris. Particulars: in vivo.
Data set [7] is described as follows: Prodrug conversion in dog liver assessed as nucleotide triphosphate level at 5 mg/kg, po co-dosed with 5 mg/kg sofosbuvir after 4 hrs. It is filed as ADME, organism-based, Canis lupus familiaris. Particulars: in vivo.
Data set [8] in a line: Half life in human hepatocytes. It counts as ADME, cell-based, Hepatocyte.
Data set [9] in a line: Prodrug conversion in human hepatocytes assessed as nucleotide triphosphate level at 100 uM after 4 hrs. It counts as ADME, cell-based, Hepatocyte.
Data set [10] can be described thus: Prodrug conversion in dog liver assessed as 2-((((2R,3R,4R,5R)-4-bromo-4-chloro-5-(2,4-dioxo-3,4-dihydropyrimidin-1(2H)-yl)-3-hydroxytetrahydrofuran-2-yl)methoxy)(hydroxy)phosphorylamino)-2-methylpropanoic acid level at 5 mg/kg, po after 24 hrs. It is filed as ADME, organism-based, Canis lupus familiaris. Particulars: in vivo.
Data set [11] in a line: Aqueous solubility of compound at pH 7.4. It counts as physicochemical. The conditions noted are these: buffer.
Data set [12] is described as follows: Prodrug conversion in dog liver assessed as nucleotide triphosphate level at 5 mg/kg, po co-dosed with 5 mg/kg sofosbuvir after 24 hrs. It counts as ADME, organism-based, Canis lupus familiaris. Particulars: in vivo.
The nature of data set [13]: Stability in dog plasma assessed as parent compound remaining after 4 hrs. Particulars: read-out: Stability. It counts as ADME, cell-free, Canis lupus familiaris.
The nature of data set [14]: Cytotoxicity against human HuH7 cells assessed as reduction in cell viability. It is filed as cell-based, Huh-7. The conditions noted are these: read-out: TD50 (the source's name).
The nature of data set [15]: Prodrug conversion in dog liver assessed as 2-((((2R,3R,4R,5R)-4-bromo-4-chloro-5-(2,4-dioxo-3,4-dihydropyrimidin-1(2H)-yl)-3-hydroxytetrahydrofuran-2-yl)methoxy)(hydroxy)phosphorylamino)-2-methylpropanoic acid level at 5 mg/kg, po after 4 hrs. It is filed as ADME, organism-based, Canis lupus familiaris. The conditions noted are these: in vivo.
Data set [16] is described as follows: Prodrug conversion in dog liver assessed as 1-((2R,3R,4R,5R)-3-bromo-3-chloro-4-hydroxy-5-(hydroxymethyl)tetrahydrofuran-2-yl)pyrimidine-2,4(1H,3H)-dione level at 5 mg/kg, po after 24 hrs. The conditions noted are these: in vivo. It counts as ADME, organism-based, Canis lupus familiaris.
The nature of data set [17]: Prodrug conversion in human hepatocytes assessed as nucleotide triphosphate level at 100 uM incubated for 4 hrs followed by compound washout and further incubated in fresh media for 24 hrs. It counts as ADME, cell-based, Hepatocyte.
The nature of data set [18]: Prodrug conversion in dog liver assessed as nucleotide triphosphate level at 5 mg/kg, po measured after 24 hrs. Particulars: in vivo. It is filed as ADME, organism-based, Canis lupus familiaris.
Data set [19] in a line: Stability in human plasma assessed as parent compound remaining after 4 hrs. The conditions noted are these: read-out: Stability. It counts as ADME, cell-free.

Structures are written as SMILES. Converted amounts (≈) assume the structure as drawn.

As a reminder, the logD is lipophilicity at a set pH, counting ionised and neutral species. Low readings indicate a more hydrophilic compound, high ones a more lipophilic compound. The half-life is the time needed for the level to fall by half in the phase considered. Broadly, the solubility is how much of the substance goes into solution per volume. The compound `CC(C)OC(=O)[C@H](C)N[P@](=O)(OC[C@H]1O[C@@H](n2ccc(=O)[nH]c2=O)[C@](Cl)(Br)[C@@H]1O)Oc1ccccc1` registered a logD in data set [1] of 3.51. In data set [2], the CLint scaled was 273 mL/min/kg. In addition, the Drug metabolism in [3] turned out to be 0.006 µg/g; in [4] it was 1.469 µg/g; in [5], 0.088 µg/g; in data set [6], 0.066 µg/g; in data set [7], 1.59 µg/g; in data set [9] it was 110 µM. Besides, the Drug metabolism in data set [10] was 0.006 µg/g; in data set [12], 1.02 µg/g; in data set [15], 0.066 µg/g; in data set [16], 0.011 µg/g; in [17] it was 22 µM; in [18] it was 0.049 µg/g. Moreover, in [8], the half-life is 15 min. Further, the solubility in [11] worked out at 23 µM (≈ 14 µg/mL). Besides, the remaining at 4 h in [13] and in data set [19] was 92% each time. In addition, in data set [14], the CC50 is 62 µM.
